Our source for the IC50 and MIC values is patent US10722520B2, “Heterocyclic compounds and their use in preventing or treating bacterial infections” (MUTABILIS, priority 2016, dated 2020).

In test [1] the target is OXA-48 (Klebsiella pneumoniae, UniProt Q6XEC0).
For test [2], the target named is AmpC (P99) (Enterobacter cloacae, UniProt P05364). As to the kind of experiment: biochemical.
Test [3] has as its target OXA-15 (Pseudomonas aeruginosa, UniProt Q51574). As to the kind of experiment: biochemical.
The target of test [4] is AmpC (PAE) (Pseudomonas aeruginosa, UniProt P24735). As to the kind of experiment: biochemical.
The target in test [5] is SHV-1 (Klebsiella pneumoniae, UniProt P0AD64).
Test [6] concerns the target OXA-11 (Pseudomonas aeruginosa, UniProt Q06778).
Test [7] has as its target CTX-M-15 (Escherichia coli, UniProt Q9EXV5).
Test [8] deals with TEM-1 (Escherichia coli, UniProt P62593).
For test [9], the target named is KPC-2 (Klebsiella pneumoniae, UniProt Q9F663).
Test [10] addresses CMY-37 (Citrobacter freundii, UniProt P05193). To be noted: read-out: IC50 β-lactamase CMY-37.
The target in test [11] is OXA-1 (Escherichia coli, UniProt P13661).
For test [12], the system named is P. aeruginosa CIP107051. As to the kind of experiment: MIC of compound alone, broth microdilution. In kind it is cell-based. To be noted: Pseudomonas aeruginosa; strain CIP107051; compound alone; read-out: MIC compounds of the invention alone. As for the experimental part:
(§1) Log phase bacterial suspensions were adjusted to a final density of 5×10^5 cfu/mL in cation-adjusted Mueller-Hinton broth (Becton-Dickinson) and added to each well (98 μL). Microplates were incubated for 16-20 h at 35° C. in ambient air. The MIC of the compounds was defined as the lowest concentration of said compounds that prevented bacterial growth as read by visual inspection.
For orientation: Dilution methods test growth across graded concentrations, often in twofold steps.

Test [13] deals with E. cloacae P99. As to the kind of experiment: MIC of compound alone, broth microdilution. The class given is cell-based. Particulars: Enterobacter cloacae; strain P99; compound alone; read-out: MIC compounds of the invention alone. As for the experimental part: as §1
For test [14], the system named is E. coli 190317. As to the kind of experiment: MIC of compound alone, broth microdilution. In kind it is cell-based. To be noted: Escherichia coli; strain 190317; compound alone; read-out: MIC compounds of the invention alone. As for the experimental part: as §1
The test system of test [15] is K. pneumoniae BAA-1898. As to the kind of experiment: MIC of compound alone, broth microdilution. In kind it is cell-based. Particulars: Klebsiella pneumoniae, BAA1898; strain BAA-1898; compound alone; read-out: MIC compounds of the invention alone. As for the experimental part: as §1
Test [16] has as its system K. pneumoniae 6299. As to the kind of experiment: MIC of compound alone, broth microdilution. In kind it is cell-based. To be noted: Klebsiella pneumoniae; strain 6299; compound alone; read-out: MIC compounds of the invention alone. As to the method: as §1

The structures appear in SMILES notation. Where a name gives a salt, the structure may show the parent alone. Read-outs that look alike come from different tables or passages of the source.

As to `CC(=NOCCN)c1ccn(C2=CC3CN(C2)C(=O)N3OS(=O)(=O)O)n1` (mixture of isomers) [Example 29, (7-oxo-3-(3-[(Z,E)-N-(2-aminoethoxy)-C-methyl-carbonimidoyl]-pyrazol-1-yl)-1,6-diazabicyclo[3.2.1]oct-3-en-6-yl) hydrogen sulfate], the 50% inhibitory concentration (IC50) – broadly, the point on the concentration scale where inhibition reaches its midpoint – in test [1] came out at 3 nM; in [2] it was 25 nM; in test [3], 51 nM; in test [4], 190 nM; in [5], 1.1 nM; in test [6], 31 nM. The IC50 in test [7] was 0.55 nM; in test [8], 0.21 nM; in test [9], 8.7 nM; in [10] (class (C), nitrocefin 200 μM, 30-min pre-incubation, enzyme 0.2 nM), 35 nM; in test [11] it was 150 nM. The MIC – broadly, the lowest concentration that inhibits growth of the organism – is above 32 µg/mL in [12]; 32 µg/mL in test [13]; 8 µg/mL in [14]; 32 µg/mL in [15]; above 32 µg/mL in [16].
Regarding `NC(=O)c1cnn(C2=CC3CN(C2)C(=O)N3OS(=O)(=O)[O-])c1.[Na+]` (centres unmarked) [Example 7, sodium [3-(4-carbamoylpyrazol-1-yl)-7-oxo-1,6-diazabicyclo[3.2.1]oct-3-en-6-yl]sulfate], the IC50 in [1] was 7.8 nM; in [2] it was 21 nM; in [3] it was 55 nM; in [4], 400 nM; in test [5] it was 4.7 nM; in test [6], 93 nM. The IC50 was found to be 2.7 nM in [7]; 0.72 nM in test [8]; 12 nM in test [9]; 22 nM in [10]; 250 nM in test [11]. In addition, the minimum inhibitory concentration (MIC) is above 32 µg/mL in test [12]; above 32 µg/mL in [13]; 16 µg/mL in test [14]; above 32 µg/mL in test [15]; above 32 µg/mL in test [16].
On to `N#Cc1cnn(C2=CC3CN(C2)C(=O)N3OS(=O)(=O)[O-])c1.[Na+]` (centres unmarked) [Example 8, sodium [3-(4-cyanopyrazol-1-yl)-7-oxo-1,6-diazabicyclo[3.2.1]oct-3-en-6-yl]sulfate], for which the concentration for half-maximal inhibition (IC50) in test [1] was found to be 3.5 nM; in [2] it was 7.6 nM; in test [3], 5.3 nM; in test [4], 140 nM; in test [5], 2.5 nM; in [6], 20 nM. Moreover, the concentration for half-maximal inhibition (IC50) in test [7] is 0.78 nM; in test [8], 0.35 nM; in test [9] it was 3.3 nM; in [10], 16 nM; in test [11] it was 100 nM. Besides, the MIC was above 32 µg/mL in test [12]; above 32 µg/mL in test [13]; 8 µg/mL in test [14]; above 32 µg/mL in test [15]; above 32 µg/mL in [16].
In the case of `COc1cnn(C2=CC3CN(C2)C(=O)N3OS(=O)(=O)[O-])c1.[Na+]` (centres unmarked) [Example 9, sodium [7-oxo-3-(4-methoxypyrazol-1-yl)-1,6-diazabicyclo[3.2.1]oct-3-en-6-yl]sulfate], the IC50 in [1] stood at 7 nM; in test [2], 15 nM; in test [3] it was 55 nM; in [4], 29 nM; in test [5], 1.9 nM; in test [6], 310 nM. In addition, the IC50 in test [7] amounted to 0.5 nM; in [8], 0.41 nM; in test [9], 22 nM; in test [10] it was 9.3 nM; in test [11] it was 410 nM. In addition, the MIC in [12], in [13], in [14], in [15] and in test [16] was above 32 µg/mL each time.
`O=C1N2CC(n3ccc(CO)n3)=CC(C2)N1OS(=O)(=O)O` (centres unmarked) [Example 12, triethylammonium [3-[3-(hydroxymethyl)pyrazol-1-yl]-7-oxo-1,6-diazabicyclo[3.2.1]oct-3-en-6-yl]sulfate]: the IC50 is 12 nM in test [1]; 15 nM in test [2]; 190 nM in test [3]; 52 nM in test [4]; 2.1 nM in test [5]; 70 nM in test [6]. The IC50 came to 0.53 nM in test [7], 0.41 nM in [8], 26 nM in [9] and 200 nM in test [11]. Further, the MIC in [12] is above 32 µg/mL; in [13], 4 µg/mL; in [14], 1 µg/mL; in test [15], 8 µg/mL; in [16], 16 µg/mL.
For the molecule `O=C(c1ccn(C2=CC3CN(C2)C(=O)N3OS(=O)(=O)[O-])n1)N1CCOCC1.[Na+]` (centres unmarked) [Example 31, sodium (7-oxo-3-[3-(morpholine-4-carbonyl)pyrazol-1-yl]-1,6-diazabicyclo[3.2.1]oct-3-en-6-yl) sulfate], the IC50 in [1] worked out at 3 nM; in [2], 15 nM; in test [3], 88 nM; in [4], 210 nM; in [5], 4.4 nM; in [6], 33 nM. For the same molecule, the IC50 in [7] came out at 0.62 nM; in test [8] it was 1.3 nM; in test [9], 11 nM; in test [11] it was 64 nM. The MIC in test [12], in test [13], in test [14], in [15] and in test [16] was above 32 µg/mL each time.
For `O=C1N2CC(n3cc(CO)nn3)=CC(C2)N1OS(=O)(=O)O` (centres unmarked) [Example 64, sodium [3-[4-(hydroxymethyl)triazol-1-yl]-7-oxo-1,6-diazabicyclo[3.2.1]oct-3-en-6-yl]sulfate], the IC50 in test [1] amounted to 0.7 nM; in [3], 8.7 nM; in test [5], 2.9 nM; in [6] it was 96 nM; in test [7], 1 nM; in [8], 0.52 nM. The values for the IC50 in test [9] and in test [11] were 7 nM and 86 nM, respectively. For the same molecule, the MIC in [12] was above 32 µg/mL; in [13], 4 µg/mL; in [14], 2 µg/mL; in test [15], 8 µg/mL; in test [16] it was 32 µg/mL.
With `O=C1N2CC(n3ccc([C@H](O)CO)n3)=CC(C2)N1OS(=O)(=O)[O-].[Na+]` (stereo partly drawn) [Example 76, sodium [3-[3-[(1S)-1,2-dihydroxyethyl]pyrazol-1-yl]-7-oxo-1,6-diazabicyclo[3.2.1]oct-3-en-6-yl]sulfate], the IC50 in test [1] came out at 50 nM; in test [2], 29 nM; in [3] it was 610 nM; in test [4], 210 nM; in test [5], 7.3 nM; in [6], 260 nM. Moreover, the IC50 in [7] amounted to 2.1 nM; in [8], 1.8 nM; in test [9] it was 73 nM; in test [11], 860 nM. Moreover, the MIC in test [12] was above 32 µg/mL; in test [13] it was 32 µg/mL; in test [14], 8 µg/mL; in test [15] it was above 32 µg/mL; in test [16], above 32 µg/mL.
On to `O=C(Nc1cc[nH]n1)c1ccn(C2=CC3CN(C2)C(=O)N3OS(=O)(=O)[O-])n1.[Na+]` (centres unmarked) [Example 85, sodium [7-oxo-3-[3-(pyrazol-3-ylcarbamoyl)pyrazol-1-yl]-1,6-diazabicyclo[3.2.1]oct-3-en-6-yl]sulfate], for which the IC50 in test [1] is 1.7 nM; in test [2], 11 nM; in test [3], 16 nM; in test [4], 130 nM; in [5] it was 1.6 nM; in [6], 7.5 nM. In addition, the IC50 was determined as 0.59 nM in test [7], 0.35 nM in test [8], 3.4 nM in test [9] and 22 nM in test [11]. Also, the MIC in test [12] is above 32 µg/mL; in [13] it was above 32 µg/mL; in test [14], 32 µg/mL; in test [15] it was above 32 µg/mL; in test [16], above 32 µg/mL.
